Experimental data as given in patent US6355269B1, “Oral compositions of levosimendan” (Orion Corporation, priority 1997, dated 2002).

Experiments:
troponin = conditions: racemic mixture; cited from earlier work
[1] = Pharmacokinetic study of levosimendan capsules, single oral dose, in healthy volunteers; assay type: in vivo, human; conditions: from oral compositions comprising substantially pure crystalline polymorphic form I
Method: Pharmacokinetic parameters of two different polymorphs, (I) and (II), of levosimendan in healthy volunteers after a single oral dose of 2 mg of levosimendan capsule was studied. The formulations of hard gelatin capsules (size 3) A and B were the following:
The small value of Tmax indicates rapid absorption of the drug into plasma.

intestinal bacteria = conditions: oral administration; by intestinal bacteria; cited from earlier work

| SMILES | calcium dependent binding to troponin (troponin) | dissolution and absorption into plasma [1] | metabolization in the lower gastrointestinal tract (intestinal bacteria) |
| --- | --- | --- | --- |
| CC1CC(=O)NN=C1c1ccc(NN=C(C#N)C#N)cc1 (racemic) [compound (I), [[4-(1,4,5,6-tetrahydro-4-methyl-6-oxo-3-pyridazinyl)phenyl]hydrazono]propanedinitrile] | significant calcium dependent binding to troponin |  |  |
| CC1CC(=O)NN=C1c1ccc(NN=C(C#N)C#N)cc1 (single isomer, unassigned; (-)) [levosimendan, (−)-[[4-(1,4,5,6-tetrahydro-4-methyl-6-oxo-3-pyridazinyl)phenyl]hydrazono]propanedinitrile] |  | rapidly dissolved and absorbed into plasma | susceptible to metabolization in the lower gastrointestinal tract by intestinal bacteria |
